Assay results from patent EP3248604A1, “AGENTS FOR MODULATION OF WNT-TCF SIGNALLING AND USES THEREOF” (UNIVERSITE DE GENEVE, priority 2016, dated 2017).
pIC50: −log10 of the molar value.

Key:
DLD1 cells [1] = assay: Clonal spheroid assay, DLD1; assay type: cell-based, human; details: Homo sapiens, DLD-1, 16 h, read-out: IC50, number of stem cell-derived spheroids
Experimental: Cells were treated with different concentrations of compounds for 16h in 2D adherent culture, washed, harvested and plated in suspension with serum-free DMEM-F12 media with B27 supplement (1:50 dilution) at 1 cell/well in 96-well format in triplicates. Plated cells were monitored to ensure the presence of single cells in each well and spheroids counted and photographed after 10 days for each round.
To directly test for a long-lasting repression of WNT-TCF targets by CAP2 clonogenic properties of cancer stem cells were tested. DLD1 and LS174T cells were first treated with CAP2 in 2D culture in vitro followed by removal of the drug, washing with PBS, and plating under non-adherent 3D conditions for clonal spheroid growth in the absence of the drug. After primary spheroid growth, the spheroids were dissociated and replated as single cells for secondary and subsequent clonogenic spheroid formation, also in the absence of the compound of the invention. As negative control DMSO-treatment was used.

DLD1 cells [2] = details: FACS, vs DMSO
Experimental: (§3) Cell were plated with different concentrations of compounds in a 96-well format and incubated in standard conditions for 6h and imaged. Active (cleaved) Caspase-3^+ apoptosis was determined using the BD Pharmigen kit and FACS (fluorescence-activated cell sorting).

WNT-TCF targets [3] = assay: RT-qPCR gene expression in CC14 primary colon cancer cells; assay type: cell-based, human; parameters: cMYC expression: scale not given here
Experimental: (§1) RT-qPCR was performed as in Melotti et al. (2014, supra) using BioRad equipment and reagents. Cells cultured in nitro were treated with the desired concentration of drug in DMEM-F12 and reduced serum (2.5% FBS) for 16h, unless otherwise noted, and collected in Trizol (Sigma) before total RNA extraction and cDNA synthesis. Primers were as in Table 1. HPRT (gene encoding Hypoxanthine phosphoribosyltransferase 1) and βACTIN were used as housekeeping controls for normalization.
Primary colon cells CC14 were cultured in DMEM-F12 with 10% FBS under standard in vitro conditions.
(§2) Primary colon cells CC14, CC36 and mCC11, colon cancer cell lines DLD1, HT29, Ls174T, melanoma cell line MeWo, glioblastoma cell lines U87 and U251, and the lung cancer cell line H358 were cultured in DMEM-F12 with 10% FBS under standard in nitro conditions.

Epigenetic regulators = assay: RT-qPCR gene expression in Ls174T cells, epigenetic regulators; assay type: cell-based, human; parameters: key: ratio normalized to DMSO control = 1; details: vs DMSO=1
Experimental: as §1
Nine components of the three pathways (WNT-TCF, BMP/TGFβ and chemokine/cytokine), and the top 6 repressed epigenetic regulators (ZMYND8, EED, SMARCAL1, TBLIXR1, SETD6 and TAF5L) (Figure 12) were tested for their modulation by dnTCF and their timed response to CAP2 treatment. […] DnTCF also repressed the expression of BMP4, SMAD6, IL8, CXCL3 and CXCL5, but expression of IL33 was enhanced. […] BMP4 and ID2 were also repressed at 2 and 4h but SMAD6 was repressed only at 4h. CXCL3 was already repressed at 2h, IL8 was little affected and IL33 and CXCL5 were enhanced at 2h. At 4 h only CXCL3 was repressed and the other three cytokine/chemokine genes tested (IL8, IL33 and CXCL5) were neither enhanced nor repressed. […] All values are normalized ratios with DMSO-controls, which were equated to 1 Table 14

WNT-TCF targets [4] = assay: RT-qPCR gene expression in U87 glioblastoma cells; assay type: cell-based, human; details: 16h, batch 3, vs DMSO=1
Experimental: as §1, §2

cell proliferation = assay: BrdU incorporation assay; assay type: cell-based; details: Example 3 (Ls174T, DLD1 cells)
Experimental: Cells incubated in vitro with different compounds were treated in DMEM-F12 with reduced serum (2.5% FBS) for 20 min with BrdU (5-bromo-2'-deoxyuridine; 10mg/ml, Sigma), washed and fixed with fresh paraformaldehyde (PFA; 4%, pH 8) followed by acid treatment and neutralization (Melotti et al., 2014, supra). Antibody analyses used anti-BrdU antibodies (supplied by University of Iowa Hybridoma Bank) and rhodamine-coupled anti-mouse secondary antibodies (Invitrogen Molecular Probes). Nuclei were counterstained with DAPI (4',6-diamidino-2-phenylindole; Sigma).

Ls174T cells = details: FACS, vs DMSO
Experimental: as §3

WNT-TCF targets [5] = assay: RT-qPCR gene expression in DLD1 cells; assay type: cell-based, human
Experimental: as §1, §2

[6] = CC14, 1.25µM, 16h, batch 3, vs DMSO=1
[7] = CC14, 2.5µM, 16h, batch 3, vs DMSO=1
[8] = CC14, 5µM, 16h, batch 3, vs DMSO=1
[9] = CC14, 10µM, 16h, batch 3, vs DMSO=1
[10] = DLD1, 1.25µM, 16h, batch 3, vs DMSO=1
[11] = DLD1, 2.5µM, 16h, batch 3, vs DMSO=1
[12] = DLD1, 5µM, 16h, batch 3, vs DMSO=1
[13] = DLD1, 10µM, 16h, batch 3, vs DMSO=1
[14] = Table 7, DLD1, 1.25µM, vs DMSO=1
[15] = Table 7, DLD1, 2.5µM, vs DMSO=1
[16] = Table 11, head 'in vitro', DLD1, concentration not given
[17] = Table 13, DLD1 secondary 3D spheroids, pretreated 2.5µM

SMILES: CC1=C(C)C(=O)O[C@@H]([C@](C)(O)[C@]2(O)CC[C@@]3(O)[C@@H]4CC=C5CC=CC(=O)[C@]5(C)[C@H]4CC[C@]23C)C1 [CAP2]
- pIC50 (DLD1 cells [1]): > 5.90
- concentration from which activated Caspase3 labeled cells increase (DLD1 cells [2]): 2.5 µM
- AXIN2 expression (WNT-TCF targets [3]; 100 nM, Example 2 cells (CC14)): 0.7
- LGR5 expression (WNT-TCF targets [3]; 100 nM, Example 2 cells (CC14)): 0.3
- cMYC expression (WNT-TCF targets [3]; 100 nM, Example 2 cells (CC14)): 0.2
- AXIN2 expression (WNT-TCF targets [3]; [6]): 0.9
- LGR5 expression (WNT-TCF targets [3]; [6]): 1.0
- AXIN2 expression (WNT-TCF targets [3]; [7]): 1.5
- LGR5 expression (WNT-TCF targets [3]; [7]): 0.8
- AXIN2 expression (WNT-TCF targets [3]; [8]): 0.7
- LGR5 expression (WNT-TCF targets [3]; [8]): 0.1
- AXIN2 expression (WNT-TCF targets [3]; [9]): 0.7
- LGR5 expression (WNT-TCF targets [3]; [9]): 0.03
- EED expression (Epigenetic regulators; 5µM batch 3, 2h post-treatment): 1.5
- SETD6 expression (Epigenetic regulators; 5µM batch 3, 2h post-treatment): 2.0
- SMARCAL1 expression (Epigenetic regulators; 5µM batch 3, 2h post-treatment): 1.6
- TAF5L expression (Epigenetic regulators; 5µM batch 3, 2h post-treatment): 0.8
- TBL1XR1 expression (Epigenetic regulators; 5µM batch 3, 2h post-treatment): 2.6
- ZMYND8 expression (Epigenetic regulators; 5µM batch 3, 2h post-treatment): 1.3
- EED expression (Epigenetic regulators; 5µM batch 3, 4h post-treatment): 0.5
- SETD6 expression (Epigenetic regulators; 5µM batch 3, 4h post-treatment): 0.7
- SMARCAL1 expression (Epigenetic regulators; 5µM batch 3, 4h post-treatment): 0.8
- TAF5L expression (Epigenetic regulators; 5µM batch 3, 4h post-treatment): 0.3
- TBL1XR1 expression (Epigenetic regulators; 5µM batch 3, 4h post-treatment): 0.6
- ZMYND8 expression (Epigenetic regulators; 5µM batch 3, 4h post-treatment): 0.5
- AXIN2 expression (WNT-TCF targets [4]; 1.25µM): 0.7
- LGR5 expression (WNT-TCF targets [4]; 1.25µM): 0.3
- AXIN2 expression (WNT-TCF targets [4]; 2.5µM): 0.5
- LGR5 expression (WNT-TCF targets [4]; 2.5µM): 0.3
- AXIN2 expression (WNT-TCF targets [4]; 5µM): 0.5
- LGR5 expression (WNT-TCF targets [4]; 5µM): 0.2
- AXIN2 expression (WNT-TCF targets [4]; 10µM): 0.6
- LGR5 expression (WNT-TCF targets [4]; 10µM): 0.2
- concentration which changes cell proliferation assessed by BrdU incorporation (cell proliferation): 1.25 µM
- concentration from which activated Caspase3 labeled cells increase (Ls174T cells): 2.5 µM
- AXIN2 expression (WNT-TCF targets [5]; [10]): 1.2
- LGR5 expression (WNT-TCF targets [5]; [10]): 1.6
- AXIN2 expression (WNT-TCF targets [5]; [11]): 0.2
- LGR5 expression (WNT-TCF targets [5]; [11]): 0.3
- AXIN2 expression (WNT-TCF targets [5]; [12]): 0.3
- LGR5 expression (WNT-TCF targets [5]; [12]): 0.1
- AXIN2 expression (WNT-TCF targets [5]; [13]): 0.1
- LGR5 expression (WNT-TCF targets [5]; [13]): 0.04
- AXIN2 expression level as compared to control (WNT-TCF targets [5]; DLD1, 2D culture, 2.5µm): 0.2
- ASCL2 expression (WNT-TCF targets [5]; [14]): 0.2
- AXIN2 expression (WNT-TCF targets [5]; [14]): 0.8
- CDKN1A expression (WNT-TCF targets [5]; [14]): 7.2
- LEF1 expression (WNT-TCF targets [5]; [14]): 0.4
- LGR5 expression (WNT-TCF targets [5]; [14]): 0.5
- cMYC expression (WNT-TCF targets [5]; [14]): 0.5
- ASCL2 expression (WNT-TCF targets [5]; [15]): 0.2
- AXIN2 expression (WNT-TCF targets [5]; [15]): 0.6
- CDKN1A expression (WNT-TCF targets [5]; [15]): 8.6
- LEF1 expression (WNT-TCF targets [5]; [15]): 0.3
- LGR5 expression (WNT-TCF targets [5]; [15]): 0.3
- cMYC expression (WNT-TCF targets [5]; [15]): 0.2
- ASCL2 expression (WNT-TCF targets [5]; Table 7, DLD1, 5µM, vs DMSO=1): 0.3
- AXIN2 expression (WNT-TCF targets [5]; Table 7, DLD1, 5µM, vs DMSO=1): 0.5
- CDKN1A expression (WNT-TCF targets [5]; Table 7, DLD1, 5µM, vs DMSO=1): 9.0
- LEF1 expression (WNT-TCF targets [5]; Table 7, DLD1, 5µM, vs DMSO=1): 0.1
- LGR5 expression (WNT-TCF targets [5]; Table 7, DLD1, 5µM, vs DMSO=1): 0.1
- cMYC expression (WNT-TCF targets [5]; Table 7, DLD1, 5µM, vs DMSO=1): 0.001
- ASCL2 expression (WNT-TCF targets [5]; Table 7, DLD1, 10µM, vs DMSO=1): 0.3
- AXIN2 expression (WNT-TCF targets [5]; Table 7, DLD1, 10µM, vs DMSO=1): 0.2
- CDKN1A expression (WNT-TCF targets [5]; Table 7, DLD1, 10µM, vs DMSO=1): 6.1
- LEF1 expression (WNT-TCF targets [5]; Table 7, DLD1, 10µM, vs DMSO=1): 0.1
- LGR5 expression (WNT-TCF targets [5]; Table 7, DLD1, 10µM, vs DMSO=1): 0.1
- cMYC expression (WNT-TCF targets [5]; Table 7, DLD1, 10µM, vs DMSO=1): 0.0002
- ASCL2 expression (WNT-TCF targets [5]; [16]): 0.3
- AXIN2 expression (WNT-TCF targets [5]; [16]): 0.5
- LGR5 expression (WNT-TCF targets [5]; [16]): 0.1
- AXIN2 expression (WNT-TCF targets [5]; Table 13, DLD1 2D, 2.5µM): 0.2
- cMYC expression (WNT-TCF targets [5]; Table 13, DLD1 2D, 2.5µM): 0.1
- AXIN2 expression (WNT-TCF targets [5]; [17]): 0.5
- cMYC expression (WNT-TCF targets [5]; [17]): 0.4
